Data on 10 compounds can be found in ChEMBL document CHEMBL1795337, “Sulfonamides incorporating boroxazolidone moieties are potent inhibitors of the transmembrane, tumor-associated carbonic anhydrase isoforms IX and XII” (Bioorg Med Chem Lett, 2011).

For this assay, the target named is Carbonic anhydrase 9 (Homo sapiens, UniProt Q16790).
Description: Inhibition of human recombinant catalytic domain of carbonic anhydrase 9 preincubated for 15 mins by stopped-flow CO2 hydration assay
`CCB(CC)OC(=O)[C@@H](N)CCCCNC(=S)Nc1ccc(S(N)(=O)=O)cc1` registered a Ki of 9.3 nM. Regarding `CCB(CC)OC(=O)[C@@H](N)CCCCNC(=S)Nc1cccc(S(N)(=O)=O)c1`, the affinity, expressed as Ki, was 9.5 nM. The value for `CCB(CC)OC(=O)[C@@H](N)CCCCNC(=S)NCc1ccc(S(N)(=O)=O)cc1` was 9.5 nM. Compound `CCB(CC)OC(=O)[C@@H](N)CCCCNC(=S)NCCc1ccc(S(N)(=O)=O)cc1` returned a Ki of 9.6 nM. The value for `CCB(CC)OC(=O)[C@@H](N)CCCCNC(=S)Nc1ccc(S(N)(=O)=O)cc1Cl` was 91 nM; that for `CCB(CC)OC(=O)[C@@H](N)CCCCNC(=S)Nc1ccc(S(N)(=O)=O)cc1F` was 89 nM; that for `CCB(CC)OC(=O)[C@@H](N)CCCCNC(=S)Nc1ccc(S(N)(=O)=O)cc1Br` was 92 nM.

On to `CCB(CC)OC(=O)[C@@H](N)CCCCNC(=S)Nc1ccc(S(=O)(=O)NCc2ccc(S(N)(=O)=O)cc2)cc1`, for which the affinity, expressed as Ki, was 7.7 nM. In turn, `CCB(CC)OC(=O)[C@@H](N)CCCCNC(=S)Nc1ccc(S(=O)(=O)NCCc2ccc(S(N)(=O)=O)cc2)cc1` gave a Ki of 9 nM. In turn, `CCB(CC)OC(=O)[C@@H](N)CCCCNC(=S)Nc1ccc(S(=O)(=O)Nc2nnc(S(N)(=O)=O)s2)cc1` gave a Ki of 8.6 nM.

As a reminder, the Ki is the dissociation constant of the complex between target and ligand, obtained from inhibition or displacement. A low value points to tighter binding.
